Among the data in patent publication US6444666B1, “Triazolopyridazine Derivatives for treating anxiety and enhancing cognition” (Merck Sharp & Dohme Ltd., priority 1997, dated 2002) are melting point values, retold here.

Turning to `c1ccc(-c2cc3nnc(-c4cnccn4)n3nc2OCc2nc[nH]n2)cc1` [Example 3, 7-Phenyl-3-(pyrazin-2-yl)-6-(1H-1,2,4-triazol-3-ylmethoxy)-1,2,4-triazolo[4,3-b]pyridazine], the melting point is 255 °C.
In the case of `Cc1cc(-c2nnc3cc(C(C)(C)C)c(OCc4ncn(C)n4)nn23)no1` [Example 6, 7-t-Butyl-3-(5-methylisoxazol-3-yl)-6-(1-methyl-1.2 4-triazol-3-yl)methyloxy-1,2,4-triazolo[4,3-b]pyridazine] it was 221 to 223 °C; in that of `Cn1ncnc1COc1nn2c(-c3cnccn3)nnc2cc1-c1ccccc1` [Example 2, 6-(2-Methyl-2H-1,2,4-triazol-3-ylmethoxy)-7-phenyl-3-(pyrazin-2-yl)-1,2,4-triazolo[4,3-b]pyridazine], 264 °C.
`Cc1cc(-c2nnc3cc(C(C)(C)C)c(OCc4cn(C)nn4)nn23)no1` [Example 7, 7-t-Butyl-3-(5-methylisoxazol-3-yl)-6-(1-methyl-1.2.3-triazol-4-yl)methyloxy-1,2,4-triazolo[4,3-b]pyridazine]: the melting point is 219 to 221 °C.
